Earlier results, collected in patent publication US20070092572A1, “Bone cement compositions and the like comprising an RNAIII-inhibiting peptide” (priority 2005, published 2007).
Like-named read-outs stand apart in the source and are kept apart here. Where no end group is shown, it is not given here.

Key:
S. aureus LS-1 [1] = details: Arthritis, mouse, strain LS-1, +RIP
[2] = test system: MRSA, MRSE, VISA, VISE, GISA, GISE, MSSA, MSSE; details: Graft injection, rat, +RIP
S. aureus Smith diffuse = details: Cellulitis/sepsis, mouse, strain Smith diffuse, +RIP
S. aureus Newbould/AE-1 = details: Mastitis, cow, strain Newbould/AE-1, +RIP
S. aureus LS-1 [3] = details: Sepsis, mouse, strain LS-1, +RIP
S. aureus MS = details: Osteomyelitis, rabbit, strain MS, +RIP
S. aureus 8325-4 = details: Keratitis, rabbit, strain 8325-4, +RIP
S. aureus = details: non-amidated versus amide form

Row | Substance | % animals disease free (S. aureus LS-1 [1]) | % animals disease free [2] | % animals disease free (S. aureus Smith diffuse) | % animals disease free (S. aureus Newbould/AE-1) | % animals disease free (S. aureus LS-1 [3]) | % animals disease free (S. aureus MS) | % animals disease free (S. aureus 8325-4) | activity of the peptide form (S. aureus)
1 | YSPWTNF(-NH2) (YSPWTNF-NH2) [RIP, amide form of a synthetic RIP analogue] | 60% | Up to 100% | Up to 100% | 70-100% | 44% | 58% | 40% | 
2 | non-amidated form of synthetic RIP: non-amidated form of the synthetic RIP analogue YSPWTNF (YSPWTNF-OH) |  |  |  |  |  |  |  | inactive
